The text below walks through data of US6828440B2, “Spiroindene and spiroindane compounds” (Euro-Celtique, S.A., priority 2001, dated 2004).

SMILES strings stand for the structures. pKi: −log10 of the molar value.

Sequence of Mu opioid receptor (P35372 whole entry, species assumed): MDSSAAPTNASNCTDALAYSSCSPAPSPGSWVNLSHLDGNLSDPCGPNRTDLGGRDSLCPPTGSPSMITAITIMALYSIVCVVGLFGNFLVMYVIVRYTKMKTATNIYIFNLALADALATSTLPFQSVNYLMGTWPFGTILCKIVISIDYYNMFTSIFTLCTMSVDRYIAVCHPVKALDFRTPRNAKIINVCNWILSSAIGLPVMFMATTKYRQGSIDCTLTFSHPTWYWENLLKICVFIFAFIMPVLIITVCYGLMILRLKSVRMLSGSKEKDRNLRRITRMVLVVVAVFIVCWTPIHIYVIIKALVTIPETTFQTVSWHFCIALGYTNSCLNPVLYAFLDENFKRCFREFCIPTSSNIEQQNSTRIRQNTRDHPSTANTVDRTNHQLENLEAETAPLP
T1 sequence (P41146 whole entry): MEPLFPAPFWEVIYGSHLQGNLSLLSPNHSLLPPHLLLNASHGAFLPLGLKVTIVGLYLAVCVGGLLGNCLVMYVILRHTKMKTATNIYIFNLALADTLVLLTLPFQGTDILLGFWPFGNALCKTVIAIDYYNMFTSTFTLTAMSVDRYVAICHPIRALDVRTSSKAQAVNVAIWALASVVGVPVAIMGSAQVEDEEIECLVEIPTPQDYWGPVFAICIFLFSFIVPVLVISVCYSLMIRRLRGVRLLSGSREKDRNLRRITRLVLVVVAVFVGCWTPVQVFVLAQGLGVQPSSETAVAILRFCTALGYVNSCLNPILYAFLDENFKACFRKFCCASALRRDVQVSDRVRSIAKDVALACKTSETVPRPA

The target in the first experiment is Mu opioid receptor (Homo sapiens, UniProt P35372). Nature of the experiment: Affinity at the μ receptor ([35S]GTPγS binding, membranes). The conditions noted are these: GraphPad PRISM curve fitting, read-out: Mu Receptor Affinity calc Ki. How it is done:
Affinity at the μ receptor for compounds was obtained according to the following assay:
Mu opioid receptor membrane solution was prepared by sequentially adding final concentrations of […] of the desired membrane protein, 10 μg/ml saponin, 3 μM GDP and 0.20 nM [^35S]GTPγS to binding buffer (100 mM NaCl, 10 mM MgCl2, 20 mM HEPES, pH 7.4) on ice. The prepared membrane solution (190 μl/well) was transferred to 96-shallow well polypropylene plates containing 10 μl of 20× concentrated stock solutions of agonist prepared in DMSO. Plates were incubated for 30 min at room temperature with shaking. Reactions were terminated by rapid filtration onto 96-well Unifilter GF/B filter plates (Packard) using a 96-well tissue harvester (Brandel) and followed by three filtration washes with 200 μl ice-cold binding buffer (10 mM NaH2PO4, 10 mM Na2HPO4, pH 7.4). Filter plates were subsequently dried at 50° C. for 2-3 hours. Fifty μl/well scintillation cocktail (MicroScint20, Packard) was added and plates were counted in a Packard Top-Count for 1 min/well.
Data were analyzed using the curve fitting functions in GraphPad PRISM™, v.3.0 and the results for several compounds are set forth in table 2 below: […]
On to `c1ccc2c(c1)CCC21CCN(Cc2ccc3ccccc3c2)CC1` [1-(naphth-2-yl-methyl)-spiro[piperidine-4,1′-indane]], for which the pKi is 6.23.
With `CC(C)C1CCC(N2CCC3(CCc4ccccc43)CC2)CC1` (stereo not shown) [1-(4-(1-methylethyl)-cyclohexyl)-spiro[piperidine-4,1′-indane]], the pKi was 6.03.
Still for that read-out and setting: as for `C1=CC2(CCN(C3CCCCCCC3)CC2)c2ccccc21` [1-(cyclooctyl)-spiro[piperidine-4,1′-indene]], the figure is 5.69; as for `c1ccc2c(c1)CCC21CCN(Cc2cccc3ccccc23)CC1` [1-(naphth-1-yl-methyl)-spiro[piperidine-4,1′-indane]], 5.95.

A further experiment addresses T1, human opioid receptor-like receptor (ORL-1) (Homo sapiens, UniProt P41146).
T1 construct: host or cells: HEK-293
Put plainly: Nociceptin affinity at the ORL1 receptor ([35S]GTPgS binding, membranes from recombinant HEK-293 cells). The conditions noted are these: ORL-1 membranes from recombinant HEK-293 cells; GraphPad PRISM curve fitting; read-out: Nociceptin Affinity calc Ki. Here is the method: Nociceptin affinity at the ORL1 receptor for preferred compounds was obtained using the following assay:
Membranes from recombinant HEK-293 cells expressing the human opioid receptor-like receptor (ORL-1) (Receptor Biology) were prepared by lysing cells in ice-cold hypotonic buffer (2.5 mM MgCl2, 50 mM HEPES, pH 7.4) (10 ml/10 cm dish) followed by homogenization with a tissue grinder/teflon pestle. Membranes were collected by centrifugation at 30,000× g for 15 min at 4° C. and pellets resuspended in hypotonic buffer to a final concentration of 1-3 mg/ml. Protein concentrations were determined using the BioRad protein assay reagent with bovine serum albumen as standard. Aliquots of the ORL-1 receptor membranes were stored at −80° C.
Functional SGTPgS binding assays were conducted as follows. ORL-1 membrane solution was prepared by sequentially adding final concentrations of 0.066 mg/ml ORL-1 membrane protein, […], […] and 0.20 nM [^35S]GTPgS to binding buffer (100 mM NaCl, 10 mM MgCl2, 20 mM HEPES, pH 7.4) on ice. The prepared membrane solution ([…]) was transferred to 96-shallow well polypropylene plates containing […] of 20× concentrated stock solutions of agonist prepared in DMSO. Plates were incubated for 30 min at room temperature with shaking. Reactions were terminated by rapid filtration onto 96-well Unifilter GF/B filter plates (Packard) using a 96-well tissue harvester (Brandel) and followed by three filtration washes with […] ice-cold binding buffer (10 mM NaH2PO4, 10 mM Na2HPO4, pH 7.4). Filter plates were subsequently dried at 50° C. for 2-3 hours. […] scintillation cocktail (BetaScint; Wallac) was added and plates were counted in a Packard Top-Count for 1 min/well.
Data was analyzed using the curve fitting functions in GraphPad PRISMÔ, v.
`c1ccc2c(c1)CCC21CCN(Cc2ccc3ccccc3c2)CC1` [1-(naphth-2-yl-methyl)-spiro[piperidine-4,1′-indane]]: the pKi is 7.46.
As for `c1ccc2c(c1)CCC21CCN(C2CCCCCCC2)CC1` [1-(cyclooctyl)-spiro[piperidine-4,1′-indane]], the pKi was 6.29.
The same measure, in the same setting: as for `c1ccc2c(c1)CCC21CCN(C2C3CCC2CC3)CC1` (stereo not shown) [1-(norbornan-7-yl)-spiro[piperidine-4,1′-indane]], the figure is 6.04; as for `C1=CC2(CCN(CC3CCCCCCC3)CC2)c2ccccc21` [1-(cyclooctylmethyl)-spiro[piperidine-4,1′-indene]], 6.51; as for `c1ccc(-c2ccc(CN3CCC4(CCc5ccccc54)CC3)cc2)cc1` [1-(p-phenylbenzyl)-spiro[piperidine-4,1′-indane]], 5.92.
As to `CC(C)C1CCC(N2CCC3(CCc4ccccc43)CC2)CC1` (stereo not shown) [1-(4-(1-methylethyl)-cyclohexyl)-spiro[piperidine-4,1′-indane]], the pKi was 6.30.
With `c1ccc2c(c1)CCc1ccccc1C2N1CCC2(CCc3ccccc32)CC1` [1-(10,11-Dihydro-5H-dibenzo[a,d]-cyclohepten-5-yl)-spiro[piperidine-4,1′-indane]], the pKi is below 5.00.
Still for that read-out and setting: next, `C1=CC2(CCN(C3CCC4CCCCC4C3)CC2)c2ccccc21` (stereo not shown) [1-(decahydro-2-naphthyl)-spiro[piperidine-4,1′-indene]]: 5.89; `c1ccc(CCN2CCC3(CCc4ccccc43)CC2)cc1` [1-(2-phenyl-ethyl)-spiro[piperidine-4,1′-indane]]: 6.04.
Regarding `C1=CC2(CCN(CCC(c3ccccc3)c3ccccc3)CC2)c2ccccc21` [1-(3,3-Bis(phenyl)propyl)-spiro[piperidine-4,1′-indene]], the negative-log Ki (pKi) is 7.38.
On to `c1ccc2c(c1)CCC21CCN(CC2CCCCCCC2)CC1` [1-(cyclooctylmethyl)-spiro[piperidine-4,1′-indane]], for which the negative logarithm of the Ki (pKi) was 6.81.
Still for that read-out and setting: next, `c1ccc2cc(CN3CCC4(CCC5CCCCC54)CC3)ccc2c1` (stereo not drawn) [1-(naphth-2-yl-methyl)-spiro[piperidine-4,1′-cis-3a, 4,5,6,7,7a-hexahydroindane]]: 6.51; `CC(C)C1CCC(N2CCC3(C=Cc4ccccc43)CC2)CC1` (stereo not shown) [1-[4-(2-propyl)-cyclohexyl]-spiro[piperidine-4,1′-indene]]: 6.53; `CC1(C)COC2(CCC(N3CCC4(C=Cc5ccccc54)CC3)CC2)OC1` [1-(3,3-dimethyl-1,5-dioxaspiro[5.5]undeca-9-yl)-spiro[piperidine-4,1′-indene]]: below 5.00.
For the molecule `c1ccc(COc2ccc(CN3CCC4(CCc5ccccc54)CC3)cc2)cc1` [1-(p-benzyloxybenzyl)-spiro[piperidine-4,1′-indane]], the negative logarithm of the Ki (pKi) was 6.06.
For the molecule `O=C1Cc2ccccc2C12CCN(Cc1ccc3ccccc3c1)CC2` [1-(naphth-2-yl-methyl)-spiro[piperidine-4,1′-(2-oxo)-indane]], the negative logarithm of the Ki (pKi) was 7.08.
Regarding `CC1(C)COC2(CCC(N3CCC4(CCc5ccccc54)CC3)CC2)OC1` [1-(3,3-dimethyl-1,5-dioxaspiro[5.5]undeca-9-yl)-spiro[piperidine-4,1′-indane]], the pKi is below 5.00.
Take `CC(C)CCC(C)N1CCC2(CCc3ccccc32)CC1` (stereo not shown) [1-(5-methylhex-2-yl)-spiro[piperidine-4,1′-indane]]: the negative-log Ki (pKi) was 6.17.
Consider `c1ccc2c(c1)CCC21CCN(C2CCC3CCCCC3C2)CC1` (stereo not shown) [1-(decahydro-2-naphthyl)-spiro[piperidine-4,1′-indane]], for which the pKi was 5.50.
Turning to `N#Cc1ccc(CN2CCC3(CCc4ccccc43)CC2)cc1` [1-(p-cyano-benzyl)-spiro[piperidine-4,1′-indane]], the negative logarithm of the Ki (pKi) was 5.82.
For `c1ccc2c(c1)CC(N1CCC3(CCc4ccccc43)CC1)C2` [1-(1,3-dihydroinden-2-yl)-spiro[piperidine-4,1′-indane]], the pKi was below 5.00.
With `CC(C)CCC(C)N1CCC2(C=Cc3ccccc32)CC1` (stereo not shown) [1-(5-methylhex-2-yl)-spiro[piperidine-4,1′-indene]], the negative logarithm of the Ki (pKi) is 6.45.
On the same count and under the same terms, as for `c1ccc2c(c1)CCC21CCN(C2CC3CCC2C3)CC1` (stereo not shown) [1-[norbornan-2-yl]-spiro[piperidine-4,1′-indane]], the figure is 5.14; as for `CCCC1CCC(N2CCC3(CCc4ccccc43)CC2)CC1` (stereo not shown) [1-(4-propyl-cyclohexyl)-spiro[piperidine-4,1′-indane]], 5.65; as for `c1ccc(CN2CCC3(CCc4ccccc43)CC2)cc1` [1-(benzyl)-spiro[piperidine-4,1′-indane]], 6.06.
Turning to `C1=CC2(CCN(C3CC4CCC3C4)CC2)c2ccccc21` (stereo not shown) [1-(norbornan-2-yl)-spiro[piperidine-4,1′-indene]], the pKi is 5.19.
On the same count and under the same terms, as for `C1=CC2(CCN(Cc3ccc(OCc4ccccc4)cc3)CC2)c2ccccc21` [1-(p-benzyloxybenzyl)-spiro[piperidine-4,1′-indene]], the figure is 5.81; as for `C1=CC2(CCN(C3CCc4ccccc4C3)CC2)c2ccccc21` (stereo not shown) [1-(2-[1,2,3,4-tetrahydronaphthyl])-spiro[piperidine-4,1′-indene]], 5.92.
Consider `O=C1CC2(CCN(Cc3ccc4ccccc4c3)CC2)c2ccccc21` [1-(naphth-2-yl-methyl)-spiro[piperidine-4,1′-(3-oxo)-indane]], for which the negative-log Ki (pKi) is 6.38.
In the case of `C1=CC2(CCN(C3CCCCCCC3)CC2)c2ccccc21` [1-(cyclooctyl)-spiro[piperidine-4,1′-indene]], the negative-log Ki (pKi) is 6.30.
As to `C1=CC2(CCN(C3c4ccccc4CCc4ccccc43)CC2)c2ccccc21` [1-(10,11-Dihydro-5H-dibenzo[a,d]-cyclohepten-5-yl)-spiro[piperidine-4,1′-indene]], the pKi is below 5.00.
`C1=CC2(CCN(C3Cc4ccccc4C3)CC2)c2ccccc21` [1-(1,3-dihydroinden-2-yl)-spiro[piperidine-4,1′-indene]]: the negative-log Ki (pKi) is 5.07.
For the molecule `C1=CC2(CCN(Cc3ccc4ccccc4c3)CC2)c2ccccc21` [1-(naphth-2-yl-methyl)-spiro[piperidine-4,1′-indene]], the pKi is 7.44.
For `Fc1ccc(C(CCCN2CCC3(CCc4ccccc43)CC2)c2ccc(F)cc2)cc1` [1-(4,4-Bis(p-fluorophenyl)butyl)-spiro[piperidine-4,1′-indane]], the negative logarithm of the Ki (pKi) was below 5.00.
Take `c1ccc2c(c1)CCC21CCN(Cc2cccc3ccccc23)CC1` [1-(naphth-1-yl-methyl)-spiro[piperidine-4,1′-indane]]: the negative logarithm of the Ki (pKi) was 6.84.
Still for that read-out and setting: next, `C1=CC2(CCN(C3CCCCCCCCC3)CC2)c2ccccc21` [1-cyclodecyl-spiro[piperidine-4,1′-indene]]: 6.37.

Broadly, the pKi is the Ki on a negative log10 scale, so that one unit is a factor of ten.
